Measurements as given in ChEMBL document CHEMBL1136440, “Design and synthesis of novel RXR-selective modulators with improved pharmacological profile” (Bioorg Med Chem Lett, 2003).

What was measured:
[1] = biological target: T1, Retinoic acid receptor RXR-alpha (Homo sapiens, UniProt P19793); assay: In vitro antagonist activity against RXR alpha in CV-1 cells; assay type: functional, cell-based, Cercopithecidae
T1 sequence (P19793 whole entry): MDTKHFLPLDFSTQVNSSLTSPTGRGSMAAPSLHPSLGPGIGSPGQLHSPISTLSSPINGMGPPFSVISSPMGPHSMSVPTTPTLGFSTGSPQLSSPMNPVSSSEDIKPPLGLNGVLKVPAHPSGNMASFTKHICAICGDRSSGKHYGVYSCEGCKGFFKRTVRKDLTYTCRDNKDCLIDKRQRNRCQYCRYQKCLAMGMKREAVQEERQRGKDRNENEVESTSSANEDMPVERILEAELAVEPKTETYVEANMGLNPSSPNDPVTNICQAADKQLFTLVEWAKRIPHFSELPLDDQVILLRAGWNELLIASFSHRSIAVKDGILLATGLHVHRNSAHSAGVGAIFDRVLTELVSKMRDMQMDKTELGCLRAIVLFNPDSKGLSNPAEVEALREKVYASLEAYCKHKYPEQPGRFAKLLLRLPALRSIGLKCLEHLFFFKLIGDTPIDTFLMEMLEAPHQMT

[2] = biological target: T1, Retinoic acid receptor RXR-alpha; assay: biochemical
Description: Binding affinity against RXR alpha receptor using [3H]9-cis-RA as radioligand in CV-1 cells

[3] = biological target: T2, Retinoic acid receptor alpha (Homo sapiens, UniProt P10276); assay: Binding affinity against RAR alpha receptor using [3H]ATRA as radioligand in CV-1 cells; assay type: cell-based, Cercopithecidae
T2 sequence (P10276 whole entry): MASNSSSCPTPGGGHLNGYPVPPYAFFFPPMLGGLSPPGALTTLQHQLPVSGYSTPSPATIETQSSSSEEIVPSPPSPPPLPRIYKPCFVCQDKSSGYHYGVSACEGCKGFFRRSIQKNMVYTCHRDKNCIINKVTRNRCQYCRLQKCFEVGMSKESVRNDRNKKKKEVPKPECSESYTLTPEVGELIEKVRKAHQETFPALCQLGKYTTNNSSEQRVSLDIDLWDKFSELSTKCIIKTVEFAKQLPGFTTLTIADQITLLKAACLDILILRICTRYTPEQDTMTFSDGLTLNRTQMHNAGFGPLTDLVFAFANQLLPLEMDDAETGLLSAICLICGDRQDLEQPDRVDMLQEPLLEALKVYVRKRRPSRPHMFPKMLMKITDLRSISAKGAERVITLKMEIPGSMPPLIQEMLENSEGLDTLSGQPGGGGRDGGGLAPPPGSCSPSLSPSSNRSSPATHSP

[4] = biological target: T3, Retinoic acid receptor gamma (Homo sapiens, UniProt P13631); assay: Binding affinity against RAR gamma receptor using [3H]ATRA as radioligand in CV-1 cells; assay type: cell-based, Cercopithecidae
T3 sequence (P13631 whole entry): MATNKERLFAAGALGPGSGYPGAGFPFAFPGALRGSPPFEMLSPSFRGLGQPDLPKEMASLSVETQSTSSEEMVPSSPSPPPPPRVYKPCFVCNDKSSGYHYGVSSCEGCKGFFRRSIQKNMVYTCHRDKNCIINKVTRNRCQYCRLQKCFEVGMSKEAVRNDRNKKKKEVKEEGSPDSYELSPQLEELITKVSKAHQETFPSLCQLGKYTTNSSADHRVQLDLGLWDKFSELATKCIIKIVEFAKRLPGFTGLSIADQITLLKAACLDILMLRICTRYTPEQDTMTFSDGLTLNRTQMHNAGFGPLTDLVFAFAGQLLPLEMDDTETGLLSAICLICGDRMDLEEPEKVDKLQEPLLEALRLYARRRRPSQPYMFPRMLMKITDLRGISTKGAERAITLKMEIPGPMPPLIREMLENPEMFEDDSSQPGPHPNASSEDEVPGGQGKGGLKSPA

[5] = Area under curve at 0-8 hr in IRC mice after peroral administration; assay type: ADME, organism-based; design: time < 8 hr, route oral; conditions: mouse, in vivo, po; note: test concentration or dose not given here
[6] = biological target: T4, Retinoic acid receptor RXR-beta (Homo sapiens, UniProt P28702); assay: Displacement of [3H]9-cis-RA from RXR beta receptor in CV-1 cells; assay type: cell-based, Cercopithecidae
T4 sequence (P28702 whole entry): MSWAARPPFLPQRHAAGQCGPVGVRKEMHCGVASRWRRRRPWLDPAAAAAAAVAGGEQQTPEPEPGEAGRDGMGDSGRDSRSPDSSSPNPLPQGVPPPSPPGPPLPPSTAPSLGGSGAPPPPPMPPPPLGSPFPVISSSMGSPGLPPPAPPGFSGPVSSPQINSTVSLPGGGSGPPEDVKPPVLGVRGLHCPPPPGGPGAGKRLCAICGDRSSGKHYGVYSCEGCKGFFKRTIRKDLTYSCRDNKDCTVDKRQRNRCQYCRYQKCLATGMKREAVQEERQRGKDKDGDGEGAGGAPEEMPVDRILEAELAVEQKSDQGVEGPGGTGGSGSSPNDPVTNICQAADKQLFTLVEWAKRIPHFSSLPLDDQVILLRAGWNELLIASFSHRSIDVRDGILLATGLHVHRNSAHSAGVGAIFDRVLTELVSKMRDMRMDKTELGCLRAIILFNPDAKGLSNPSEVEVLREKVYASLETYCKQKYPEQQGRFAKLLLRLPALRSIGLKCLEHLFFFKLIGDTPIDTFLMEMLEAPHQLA

[7] = biological target: T5, Peroxisome proliferator-activated receptor gamma (Homo sapiens, UniProt P37231)
T5 sequence (P37231 whole entry): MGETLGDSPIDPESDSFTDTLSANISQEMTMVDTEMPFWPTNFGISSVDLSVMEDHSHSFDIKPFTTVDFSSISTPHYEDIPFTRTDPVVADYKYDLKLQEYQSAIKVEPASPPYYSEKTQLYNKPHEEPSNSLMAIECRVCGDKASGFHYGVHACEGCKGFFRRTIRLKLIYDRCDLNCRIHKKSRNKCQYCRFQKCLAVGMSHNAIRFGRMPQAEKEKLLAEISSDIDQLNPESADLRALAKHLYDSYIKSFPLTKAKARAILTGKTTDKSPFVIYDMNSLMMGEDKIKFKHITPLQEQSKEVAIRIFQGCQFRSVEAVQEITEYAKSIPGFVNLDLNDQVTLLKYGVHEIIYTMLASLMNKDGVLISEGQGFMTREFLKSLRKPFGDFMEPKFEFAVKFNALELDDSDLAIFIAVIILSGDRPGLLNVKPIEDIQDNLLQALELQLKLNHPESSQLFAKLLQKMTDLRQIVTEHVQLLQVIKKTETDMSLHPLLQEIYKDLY
Description: In vitro agonist efficacy against PPAR gamma along with 100 nM BRL-49653

Compound: C/C(=C/C=C/C(C)=C/C(=O)O)c1cc(-c2ccccc2F)cc(C(C)C)c1OCC(F)F
- IC50 [1]: 3.1 nM
- Ki [2]: 2.3 nM
- Ki [3]: 6.76 µM
- Ki [4]: 8.76 µM
- AUC(0-t) at 8 h [5]: 15200 ng·h/mL
- Ki [6]: 16 nM
- EC50 [7]: 46 nM

Compound: CCOc1c(\C(C)=C/C=C/C(C)=C/C(=O)O)cc(C(F)(F)C(F)(F)F)cc1C(C)C
- IC50 [1]: 5.3 nM
- Ki [2]: 6.3 nM
- Ki [3]: > 10 µM
- Ki [4]: > 10 µM
- AUC(0-t) at 8 h [5]: 14400 ng·h/mL
- Ki [6]: 8.5 nM
- EC50 [7]: 99 nM
